Test systems include NCI-H226; KM-20L2; DU-145; CAKI-1; SK-OV-3; NCI-H23; SK-MEL-28; MDA-N; HL-60; PC-3; ACHN; T47D; A549; IGROV-1; NCI-H522; SF-539; MCF7; SR; U-251; MDA-MB-435.
What all share (experiment): growth of human tumour cells (NCI), 48 h

Experimental findings from ChEMBL document CHEMBL1201862, “PubChem BioAssay data set” (2004) are described below.

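Dose response: 5 concentrations. Exposure: 48 h. Format: 96-well plates. Endpoint: linear interpolation; highest concentration if not reached. GI50 marks 50% less growth.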 Calls of active or inactive are those of the source. Rule as the data show it: active = GI50 up to about 1.1 µM and inactive = higher.

With `CN1CCN(C)C12C=c1ccccc1=CC21CC1`, the GI50 is > 100 µM (inactive) in the test with NCI-H226; 27.3 µM (inactive) in the test with KM-20L2; > 100 µM (inactive) in the test on DU-145; 74.1 µM (inactive) in the test with CAKI-1; > 92.9 µM (inactive) in the test on SK-OV-3; > 100 µM (inactive) with NCI-H23. Also, the GI50 is 20.7 µM (inactive) in the test on SK-MEL-28; 27.4 µM (inactive) with MDA-N; 3.02 µM (inactive) in the test on HL-60; 32.3 µM (inactive) with PC-3; 74.8 µM (inactive) with ACHN; 45.1 µM (inactive) with T47D. For the same compound, the GI50 was > 91.4 µM (inactive) in the test on A549; 68.7 µM (inactive) in the test on IGROV-1; 24.5 µM (inactive) in the test on NCI-H522; 37.9 µM (inactive) in the test on SF-539; 35.4 µM (inactive) in the test on MCF7; 25.3 µM (inactive) with SR. Further, the figures for the GI50 in the test on U-251 and in the test with MDA-MB-435 were 37.8 µM (inactive) and 22.1 µM (inactive), respectively.

As for `CC(C)C1=Cc2ccc3c(c2C(=O)C1=O)CCCC3`, the GI50 with NCI-H226 was 15 µM (inactive); in the test on KM-20L2 it was 19.1 µM (inactive); in the test on DU-145, 17.9 µM (inactive); in the test on CAKI-1 it was 0.955 µM (active); with SK-OV-3, 2.92 µM (inactive); with NCI-H23 it was 9.42 µM (inactive). Further, the GI50 with SK-MEL-28 was 7.5 µM (inactive); with MDA-N, 6.61 µM (inactive); in the test with HL-60, 1.01 µM (active); in the test with PC-3 it was 13.8 µM (inactive); with ACHN, 3.49 µM (inactive); in the test with T47D, 0.227 µM (active). In addition, the GI50 in the test with A549 is 5.96 µM (inactive); in the test on IGROV-1, 5.27 µM (inactive); in the test on NCI-H522, 2.27 µM (inactive); in the test on SF-539, 8.07 µM (inactive); in the test on MCF7, 1.59 µM (inactive); with SR, 0.515 µM (active). Further, the GI50 was 19.1 µM (inactive) in the test with U-251 and 0.865 µM (active) in the test on MDA-MB-435.
